Among the data in patent US11814367B2, “Inhibitors of glycogen synthase 1 (GYS1) and methods of use thereof” (Maze Therapeutics, Inc., priority 2021, dated 2023) are IC50 values, retold here.

SMILES strings stand for the structures.

For experiment [1], the target named is hGYS1 enzyme (recombinant hGYS1/GN1 protein) (Homo sapiens (Human), UniProt P13807). Kind of experiment: GYS1 coupled enzyme assay (PK/LDH). Particulars: hGYS1/GN1 50 nM, UDP-Glucose 0.8 mM, G6P 1 mM; geometric mean of at least 2 runs. Format: biochemical.
Chain of hGYS1 enzyme (recombinant hGYS1/GN1 protein) (P13807 whole entry): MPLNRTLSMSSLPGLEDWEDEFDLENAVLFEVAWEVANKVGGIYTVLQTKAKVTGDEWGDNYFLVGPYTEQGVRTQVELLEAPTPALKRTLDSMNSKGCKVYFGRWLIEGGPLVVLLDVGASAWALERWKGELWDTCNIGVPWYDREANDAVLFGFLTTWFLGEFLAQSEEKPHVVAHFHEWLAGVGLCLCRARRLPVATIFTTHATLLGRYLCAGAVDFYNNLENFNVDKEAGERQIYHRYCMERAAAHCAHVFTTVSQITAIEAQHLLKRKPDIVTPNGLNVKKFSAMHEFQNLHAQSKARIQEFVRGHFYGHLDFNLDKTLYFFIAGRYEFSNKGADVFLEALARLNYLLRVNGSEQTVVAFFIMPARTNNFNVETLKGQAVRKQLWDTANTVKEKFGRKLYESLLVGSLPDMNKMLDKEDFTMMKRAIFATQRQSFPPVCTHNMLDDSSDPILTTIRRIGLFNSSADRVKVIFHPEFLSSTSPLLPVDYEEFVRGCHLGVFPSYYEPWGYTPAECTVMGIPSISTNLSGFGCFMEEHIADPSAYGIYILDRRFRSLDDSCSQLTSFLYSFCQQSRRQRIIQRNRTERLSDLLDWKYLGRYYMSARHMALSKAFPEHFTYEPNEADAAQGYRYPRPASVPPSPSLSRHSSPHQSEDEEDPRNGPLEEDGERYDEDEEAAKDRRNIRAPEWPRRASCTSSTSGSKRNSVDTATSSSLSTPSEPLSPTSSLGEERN
Chain of hGYS1 enzyme (recombinant hGYS1/GN1 protein) (P46976 whole entry partner): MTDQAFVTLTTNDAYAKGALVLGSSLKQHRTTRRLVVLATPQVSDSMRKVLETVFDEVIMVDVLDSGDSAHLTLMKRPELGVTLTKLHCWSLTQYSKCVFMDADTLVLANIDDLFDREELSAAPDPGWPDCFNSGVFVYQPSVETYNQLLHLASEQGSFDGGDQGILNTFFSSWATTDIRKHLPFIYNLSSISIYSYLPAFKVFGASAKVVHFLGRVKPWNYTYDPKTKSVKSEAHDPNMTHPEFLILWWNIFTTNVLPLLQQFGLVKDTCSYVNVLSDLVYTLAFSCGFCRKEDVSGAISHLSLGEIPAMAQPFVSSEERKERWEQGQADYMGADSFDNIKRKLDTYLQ
Experiment [2] addresses hGYS2 enzyme (recombinant hGYS2/GN1 protein) (Homo sapiens (Human), UniProt P54840). Kind of experiment: GYS2 coupled enzyme assay (PK/LDH). Format: biochemical. Particulars: geometric mean of at least 2 assay runs on separate days, read-out: Avg_IC50. The procedure, abridged: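 Recombinant hGYS2/GN1 (200 nM) with 2 mM UDP-glucose, 0.2% rabbit liver glycogen, 2 mM glucose-6-phosphate; UDP coupled via PK/LDH (2 mM PEP, 0.6 mM NADH). Buffer 50 mM Tris pH 7.5, 2 mM MgCl2, 100 mM KCl, 2.5% DMSO. A340 slope over 10 min; IC50 from Hill fit of duplicates.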

Chain of hGYS2 enzyme (recombinant hGYS2/GN1 protein) (P54840 whole entry): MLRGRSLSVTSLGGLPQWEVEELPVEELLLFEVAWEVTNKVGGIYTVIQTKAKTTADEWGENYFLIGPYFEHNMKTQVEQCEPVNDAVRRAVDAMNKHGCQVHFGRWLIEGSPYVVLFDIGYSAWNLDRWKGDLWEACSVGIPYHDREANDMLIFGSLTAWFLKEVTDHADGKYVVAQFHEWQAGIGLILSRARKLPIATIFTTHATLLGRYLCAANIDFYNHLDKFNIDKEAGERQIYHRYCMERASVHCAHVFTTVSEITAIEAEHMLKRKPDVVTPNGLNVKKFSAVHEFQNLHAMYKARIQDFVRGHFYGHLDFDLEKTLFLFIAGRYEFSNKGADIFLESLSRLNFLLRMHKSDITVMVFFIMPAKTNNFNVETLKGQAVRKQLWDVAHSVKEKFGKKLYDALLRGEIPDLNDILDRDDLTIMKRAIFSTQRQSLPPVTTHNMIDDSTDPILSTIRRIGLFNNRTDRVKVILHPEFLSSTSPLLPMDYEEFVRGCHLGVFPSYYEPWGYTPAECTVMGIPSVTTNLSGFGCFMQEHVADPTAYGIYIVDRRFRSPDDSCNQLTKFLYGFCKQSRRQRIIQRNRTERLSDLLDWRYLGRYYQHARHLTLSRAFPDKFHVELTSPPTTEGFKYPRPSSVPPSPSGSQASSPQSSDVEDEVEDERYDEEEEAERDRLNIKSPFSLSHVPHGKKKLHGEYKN
Chain of hGYS2 enzyme (recombinant hGYS2/GN1 protein) (P46976 whole entry partner): as the sequence (P46976 whole entry partner) above

Take `CC(C)c1ccc([C@@H](NC(=O)[C@@H]2C[C@@H](F)CN2C(=O)Cn2ncc(N3CCNCC3)n2)c2ccccc2)cc1F` [Compound 376, (2S,4R)-4-fluoro-N-[(S)-[3-fluoro-4-(propan-2-yl)phenyl](phenyl)methyl]-1-{2-[4-(piperazin-1-yl)-2H-1,2,3-triazol-2-yl]acetyl}pyrrolidine-2-carboxamide]: the IC50 in experiment [1] was 8 nM; in experiment [2], over 100000 nM.

In the case of `Cc1cn(CC(=O)N2C[C@H](F)C[C@H]2C(=O)N[C@@H](c2ccccc2)c2ccc(C(C)C)c(F)n2)c(=O)n(C)c1=O` [Compound 386, (2S,4R)-1-[2-(3,5-dimethyl-2,4-dioxo-1,2,3,4-tetrahydropyrimidin-1-yl)acetyl]-4-fluoro-N-[(S)-[6-fluoro-5-(propan-2-yl)pyridin-2-yl](phenyl)methyl] pyrrolidine-2-carboxamide], the figures for the IC50 in experiment [1] and in experiment [2] were 5 nM and over 100000 nM, respectively.

Consider `Cc1cn(CC(=O)N2C[C@H](F)C[C@H]2C(=O)N[C@@H](c2ccccc2)c2ccc(C(C)C)c(F)n2)c(=O)[nH]c1=O` [Compound 388, (2S,4R)-4-fluoro-N-[(S)-[6-fluoro-5-(propan-2-yl)pyridin-2-yl](phenyl)methyl]-1-[2-(5-methyl-2,4-dioxo-1,2,3,4-tetrahydropyrimidin-1-yl)acetyl]pyrrolidine-2-carboxamide], for which the IC50 is 5 nM in experiment [1] and over 100000 nM in experiment [2].

`CC(=O)N1C[C@H](F)C[C@H]1C(=O)N[C@@H](c1ccccc1)c1ccc(C2CC2)c(F)c1` [Compound 418, (2S,4R)-1-acetyl-N-[(S)-(4-cyclopropyl-3-fluorophenyl)(phenyl)methyl]-4-fluoropyrrolidine-2-carboxamide]: the IC50 in experiment [1] was 697 nM; in experiment [2] it was over 100000 nM.

As for `CC(=O)NCC(=O)N1CCC[C@H]1C(=O)N[C@@H](c1ccccc1)c1ccc(C2CC2)c(F)c1` [Compound 421, (2S)-N-[(S)-(4-cyclopropyl-3-fluorophenyl)(phenyl)methyl]-1-(2-acetamidoacetyl) pyrrolidine-2-carboxamide], the values for the IC50 in experiment [1] and in experiment [2] were 294 nM and over 100000 nM, respectively.

On to `O=C(N[C@@H](c1ccccc1)c1ccc(C2CC2)c(F)c1)[C@@H]1C[C@@H](F)CN1C(=O)CCc1ncco1` [Compound 422, (2S,4R)-N-[(S)-(4-cyclopropyl-3-fluorophenyl)(phenyl)methyl]-4-fluoro-1-[3-(1,3-oxazol-2-yl)propanoyl]pyrrolidine-2-carboxamide], for which the IC50 in experiment [1] was 166 nM; in experiment [2] it was over 100000 nM.

With `O=C(N[C@@H](c1ccccc1)c1ccc(C2CC2)c(F)c1)[C@@H]1C[C@@H](F)CN1C(=O)CN1CCOC1=O` [Compound 424, (2S,4R)-N-[(S)-(4-cyclopropyl-3-fluorophenyl)(phenyl)methyl]-4-fluoro-1-[2-(2-oxo-1,3-oxazolidin-3-yl)acetyl] pyrrolidine-2-carboxamide], the IC50 is 287 nM in experiment [1] and over 100000 nM in experiment [2].

As to `O=C(N[C@@H](c1ccccc1)c1ccc(C2CC2)c(F)c1)[C@@H]1C[C@@H](F)CN1C(=O)Cc1nnco1` [Compound 426, (2S,4R)-N-[(S)-(4-cyclopropyl-3-fluorophenyl)(phenyl)methyl]-4-fluoro-1-[2-(1,3,4-oxadiazol-2-yl)acetyl]pyrrolidine-2-carboxamide], the IC50 was 363 nM in experiment [1] and over 100000 nM in experiment [2].

With `O=C(N[C@@H](c1ccccc1)c1ccc(C2CC2)c(F)c1)[C@@H]1C[C@@H](F)CN1C(=O)Cc1nnc(C(F)(F)F)o1` [Compound 428, (2S,4R)-N-[(S)-(4-cyclopropyl-3-fluorophenyl)(phenyl)methyl]-4-fluoro-1-{2-[5-(trifluoromethyl)-1,3,4-oxadiazol-2-yl]acetyl}pyrrolidine-2-carboxamide], the results for the IC50 in experiment [1] and in experiment [2] were 374 nM and over 100000 nM, respectively.

Consider `O=C(N[C@@H](c1ccccc1)c1ccc(C2CC2)c(F)c1)[C@@H]1C[C@@H](F)CN1C(=O)Cc1nnn[nH]1` [Compound 430, (2S,4R)-N-[(S)-(4-cyclopropyl-3-fluorophenyl)(phenyl)methyl]-4-fluoro-1-[2-(1H-1,2,3,4-tetrazol-5-yl)acetyl]pyrrolidine-2-carboxamide], for which the IC50 was 191 nM in experiment [1] and over 100000 nM in experiment [2].

Consider `Cc1nnnn1CC(=O)N1C[C@H](F)C[C@H]1C(=O)N[C@@H](c1ccccc1)c1ccc(C2CC2)c(F)c1` [Compound 432, (2S,4R)-N-[(S)-(4-cyclopropyl-3-fluorophenyl)(phenyl)methyl]-4-fluoro-1-[2-(5-methyl-1H-1,2,3,4-tetrazol-1-yl)acetyl]pyrrolidine-2-carboxamide], for which the IC50 in experiment [1] is 185 nM; in experiment [2], over 100000 nM.

`Cc1nnc(CC(=O)N2C[C@H](F)C[C@H]2C(=O)N[C@@H](c2ccccc2)c2ccc(C3CC3)c(F)c2)[nH]1` [Compound 434, (2S,4R)-N-[(S)-(4-cyclopropyl-3-fluorophenyl)(phenyl)methyl]-4-fluoro-1-[2-(5-methyl-4H-1,2,4-triazol-3-yl)acetyl]pyrrolidine-2-carboxamide]: the IC50 in experiment [1] was 109 nM; in experiment [2], over 100000 nM.

For the molecule `O=C(N[C@@H](c1ccccc1)c1ccc(C2CC2)c(F)c1)[C@@H]1C[C@@H](F)CN1C(=O)Cn1cccn1` [Compound 435, (2S,4R)-N-[(S)-(4-cyclopropyl-3-fluorophenyl)(phenyl)methyl]-4-fluoro-1-[2-(1H-pyrazol-1-yl)acetyl]pyrrolidine-2-carboxamide], the IC50 in experiment [1] was 149 nM; in experiment [2] it was over 100000 nM.

In the case of `O=C(N[C@@H](c1ccccc1)c1ccc(C2CC2)c(F)c1)[C@@H]1C[C@@H](F)CN1C(=O)Cc1ccn[nH]1` [Compound 436, (2S,4R)-N-[(S)-(4-cyclopropyl-3-fluorophenyl)(phenyl)methyl]-4-fluoro-1-[2-(1H-pyrazol-5-yl)acetyl]pyrrolidine-2-carboxamide], the IC50 in experiment [1] is 173 nM; in experiment [2], over 100000 nM.

Take `O=C(N[C@@H](c1ccccc1)c1ccc(C2CC2)c(F)c1)[C@@H]1C[C@@H](F)CN1C(=O)Cc1cn[nH]c1` [Compound 437, (2S,4R)-N-[(S)-(4-cyclopropyl-3-fluorophenyl)(phenyl)methyl]-4-fluoro-1-[2-(1H-pyrazol-4-yl)acetyl]pyrrolidine-2-carboxamide]: the figures for the IC50 in experiment [1] and in experiment [2] were 157 nM and over 100000 nM, respectively.

In the case of `CN(C)C(=O)NCC(=O)N1C[C@H](F)C[C@H]1C(=O)N[C@@H](c1ccccc1)c1ccc(C2CC2)c(F)c1` [Compound 441, (2S,4R)-N-[(S)-(4-cyclopropyl-3-fluorophenyl)(phenyl)methyl]-1-{2-[(dimethylcarbamoyl)amino]acetyl}-4-fluoropyrrolidine-2-carboxamide], the IC50 in experiment [1] is 51 nM; in experiment [2], over 100000 nM.

For `O=C(N[C@@H](c1ccccc1)c1ccc(C2CC2)c(F)c1)[C@@H]1C[C@@H](F)CN1C(=O)Cc1cccc2ncccc12` [Compound 443, (2S,4R)-N-[(S)-(4-cyclopropyl-3-fluorophenyl)(phenyl)methyl]-4-fluoro-1-[2-(quinolin-5-yl)acetyl]pyrrolidine-2-carboxamide], the IC50 is 28 nM in experiment [1] and over 100000 nM in experiment [2].

On to `Cc1n[nH]c(C)c1CC(=O)N1C[C@H](F)C[C@H]1C(=O)N[C@@H](c1ccccc1)c1ccc(C2CC2)c(F)c1` [Compound 444, (2S,4R)-N-[(S)-(4-cyclopropyl-3-fluorophenyl)(phenyl)methyl]-1-[2-(3,5-dimethyl-1H-pyrazol-4-yl)acetyl]-4-fluoropyrrolidine-2-carboxamide], for which the IC50 in experiment [1] is 44 nM; in experiment [2], over 100000 nM.

Regarding `CC(C)c1ccc([C@@H](NC(=O)[C@@H]2C[C@@H](F)CN2C(=O)Cc2cnn[nH]2)c2cccnc2N)cc1F` [Compound 613, (2S,4R)-1-(2-(1H-1,2,3-triazol-5-yl)acetyl)-N—((R)-(2-aminopyridin-3-yl)(3-fluoro-4-isopropylphenyl)methyl)-4-fluoropyrrolidine-2-carboxamide], the IC50 in experiment [1] was 130 nM; in experiment [2] it was over 100000 nM.

For `COc1ccccc1[C@H](NC(=O)[C@@H]1CCCN1C(C)=O)c1ccc(C(C)C)cc1` [Compound 639, (2S)-1-acetyl-N-[(R)-(2-methoxyphenyl)[4-(propan-2-yl)phenyl]methyl] pyrrolidine-2-carboxamide], the IC50 in experiment [1] was 921 nM; in experiment [2], over 100000 nM.

`CC(=O)N1CCC[C@H]1C(=O)N[C@H](c1ccc(C(C)C)cc1)c1ccccc1C` [Compound 640, (2S)-1-acetyl-N-[(R)-(2-methylphenyl)[4-(propan-2-yl)phenyl]methyl] pyrrolidine-2-carboxamide]: the IC50 was 1440 nM in experiment [1] and over 100000 nM in experiment [2].

On to `CC(C)c1ccc([C@@H](NC(=O)[C@@H]2CCCN2C(=O)Cc2cnn[nH]2)c2cccc3[nH]c(=O)[nH]c23)cc1` [Compound 644, (2S)-N-[(R)-(2-oxo-2,3-dihydro-1H-1,3-benzodiazol-4-yl)[4-(propan-2-yl)phenyl]methyl]-1-[2-(1H-1,2,3-triazol-5-yl)acetyl]pyrrolidine-2-carboxamide], for which the IC50 in experiment [1] was 273 nM; in experiment [2], over 100000 nM.

Take `CC(C)c1ccc([C@@H](NC(=O)[C@@H]2C[C@@H](F)CN2C(=O)Cc2cnn[nH]2)c2cccc(F)c2)cc1F` [Compound 645, (2S,4R)-4-fluoro-N-[(S)-[3-fluoro-4-(propan-2-yl)phenyl](3-fluoropheny)methyl]-1-[2-(1H-1,2,3-triazol-5-yl)acetyl]pyrrolidine-2-carboxamide]: the IC50 in experiment [1] was 100 nM; in experiment [2], over 100000 nM.
